The conditions of series [1]: male, Sprague-Dawley, rat, in vivo.
The conditions of series [2]: male, Sprague-Dawley, in vivo.
The conditions of series [3]: cynomolgus monkey, in vivo; for Prodrug detectability in plasma after dose administration / Tmax: po; for Tmax: male, 8.8 umol/kg.
The nature of series [4]: In vitro release of therapeutic agent from prodrugs in plasma supplemented with lipoprotein lipase. It counts as in vitro ADME. The conditions noted are these: free allopregnanolone (parent API) in dog plasma supplemented with LPL, 37° C. As for the experimental part: In order to probe the release of free drug from TG prodrugs in the systemic circulation, prodrugs are incubated with plasma (rat, dog, monkey, or human) supplemented with lipoprotein lipase (LPL, 200 IU/ml). LPL is a key enzyme required for the hydrolysis of lipoprotein associated TG in the systemic circulation and is therefore expected to be a key contributor to lipolysis of the re-esterified drug-TG construct in plasma, largely via liberation of fatty acids in the sn-1 and the sn-3 position of the TG-mimetic, prior to drug release from the 2′ position via esterase hydrolysis. LPL is active in plasma but is tethered to the luminal surface of vascular endothelial cells under physiological conditions. In the current in vitro studies, plasma is therefore supplemented with LPL to better reflect the in vivo situation.
To start hydrolysis, 10 μl of LPL solution (10,000 IU/ml) will be added to a mixture of 10 μl of prodrug solution (1 mg/ml dissolved in organic solvent, e.g., THF, DMSO, or acetonitrile) and 500 μl of blank plasma. The mixture will be incubated at 37° C. […] The supernatant will be analyzed by HPLC-MS/MS for the potential products (MG form, acid form, and free drug) of prodrug hydrolysis.
The in vitro hydrolysis profile of selected prodrug compounds will be determined in rat, dog, monkey and/or human plasma supplemented with LPL.

Like-named read-outs stand apart in the source and are kept apart here.

On to `CCCCCCCC/C=C\CCCCCCCC(=O)OCC(COC(=O)CCCCCCC/C=C\CCCCCCCC)OC(=O)CC(C)CCCCC(=O)OCO[C@@H]1CC[C@@]2(C)[C@@H](CC[C@@H]3[C@@H]2CC[C@]2(C)[C@@H](C(C)=O)CC[C@@H]32)C1` (stereo partly shown) [Compound I-42, ALL-ASI-C8bMe-2-TG-oleate], for which, in series [1] (2 mg/kg), the peak level (Cmax) was 334 nM; the “Mean Plasma AUC, 0-24 h” value is 0.47 µM·h; the Tmax is 1.5 h.
The matching figures for `CCC(=O)OCC(COC(=O)CC)OC(=O)C(C)CCCCCCCCC(C)C(=O)OCCCCC(=O)O[C@@H]1CC[C@@]2(C)[C@@H](CC[C@@H]3[C@@H]2CC[C@]2(C)[C@@H](C(C)=O)CC[C@@H]32)C1` (stereo partly shown) [Compound I-5, ALL-FSI5-C12a′aMe-2-TG]: 62.8 nM, 0.0839 µM·h and 1.8 h.
As for `CCCC(=O)OCC(COC(=O)CCC)OC(=O)CC(C)CC(=O)OC(C)OC(=O)O[C@@H]1CC[C@@]2(C)[C@@H](CC[C@@H]3[C@@H]2CC[C@]2(C)[C@@H](C(C)=O)CC[C@@H]32)C1` (stereo partly shown) [Compound I-37, ALL-CMSI-C5bMe-2-TG-butyrate], in series [1] (po), the maximum concentration (Cmax) came to 138 nM; the “Mean Plasma AUC, 0-24 h” value came to 0.191 µM·h; the time of peak concentration (Tmax) was 0.8 h.
Turning to `CCCCCCCC/C=C\CCCCCCCC(=O)OCC(COC(=O)CCCCCCC/C=C\CCCCCCCC)OC(=O)CCCCCCC(=O)OCO[C@@H]1CC[C@@]2(C)[C@@H](CC[C@@H]3[C@@H]2CC[C@]2(C)[C@@H](C(C)=O)CC[C@@H]32)C1` [Compound I-41, ALL-ASI-C8-2-TG-oleate], in series [1] (2 mg/kg), the peak level (Cmax) was 129 nM; the “Mean Plasma AUC, 0-24 h” value is 0.211 µM·h; the time to peak (Tmax) was found to be 1.7 h.
For `CC(=O)[C@H]1CC[C@H]2[C@@H]3CC[C@H]4C[C@H](O)CC[C@]4(C)[C@H]3CC[C@]12C` [Allopregnanalone, 5α-pregnan-3α-ol-20-one], the “Rat - cumulative lymphatic transport: Mean, total lymphatic transport over 6 or 8 hours (%)” value in series [2] is 0.1%.
Take `CCCCCCCC(=O)OCC(COC(=O)CCCCCCC)OC(=O)CC(C)CC(=O)OCOC(=O)O[C@@H]1CC[C@@]2(C)[C@@H](CC[C@@H]3[C@@H]2CC[C@]2(C)[C@@H](C(C)=O)CC[C@@H]32)C1` (stereo partly shown) [Compound I-47, ALL-CASI-C5bMe-2-TG-octanoate]: in series [3], the “Tolerability of oral administration” value is “well-tolerated”, the “Prodrug detectability in plasma after dose administration” value is on record as “detectable in plasma samples after dose administration at all time-points” and the Tmax turned out to be 4.0 h.
Take `CCCCCCCCCCCCCCCC(=O)OCC(COC(=O)CCCCCCCCCCCCCCC)OC(=O)CC(C)CC(=O)OC(C)OC(=O)O[C@@H]1CC[C@@]2(C)[C@@H](CC[C@@H]3[C@@H]2CC[C@]2(C)[C@@H](C(C)=O)CC[C@@H]32)C1` (stereo partly shown) [Compound I-8, ALL-CMSI-C5bMe-2-TG]: in series [1] (2 mg/kg), the peak concentration (Cmax) is 241 nM; the “Mean Plasma AUC, 0-24 h” value is 0.3681 µM·h; the Tmax was 2.3 h. The “Parent API present at end of experiment (%)” value in series [4] was “B (≥20% and <60% release into plasma)”.
In the case of `CCCCCCCC(=O)OCC(COC(=O)CCCCCCC)OC(=O)CC(C)CC(=O)OC(C)OC(=O)O[C@@H]1CC[C@@]2(C)[C@@H](CC[C@@H]3[C@@H]2CC[C@]2(C)[C@@H](C(C)=O)CC[C@@H]32)C1` (stereo partly shown) [Compound I-36, ALL-CMSI-C5bMe-2-TG-octanoate], in series [1] (po), the “Mean Plasma AUC, 0-24 h” value was 0.312 µM·h and the time of peak concentration (Tmax) is on record as 1.2 h. Besides, in series [3], the “Tolerability of oral administration” value is listed as “well-tolerated”, the “Prodrug detectability in plasma after dose administration” value is reported as “detectable in plasma samples after dose administration at all time-points” and the Tmax is 4.0 h.
As to `CCC(=O)OCC(COC(=O)CC)OC(=O)C(C)CCCCCCCCC(C)C(=O)OC(C)OC(=O)O[C@@H]1CC[C@@]2(C)[C@@H](CC[C@@H]3[C@@H]2CC[C@]2(C)[C@@H](C(C)=O)CC[C@@H]32)C1` (stereo partly shown) [Compound I-6, ALL-CMSI-C12a′aMe-2-TG], in series [1] (2 mg/kg), the Cmax is 239 nM; the “Mean Plasma AUC, 0-24 h” value was 0.3209 µM·h; the Tmax amounted to 1 h.
The matching figures for `CCCCCCCC/C=C\CCCCCCCC(=O)OCC(COC(=O)CCCCCCC/C=C\CCCCCCCC)OC(=O)CCCCC(C)CC(=O)OCOC(=O)O[C@@H]1CC[C@@]2(C)[C@@H](CC[C@@H]3[C@@H]2CC[C@]2(C)[C@@H](C(C)=O)CC[C@@H]32)C1` (stereo partly shown) [Compound I-49, ALL-CASI-C8b′Me-2-TG-oleate]: 370 nM, 0.513 µM·h and 1.7 h.
The matching figures for `CCCCCCCC/C=C\CCCCCCCC(=O)OCC(COC(=O)CCCCCCC/C=C\CCCCCCCC)OC(=O)CCCCC(=O)OCO[C@@H]1CC[C@@]2(C)[C@@H](CC[C@@H]3[C@@H]2CC[C@]2(C)[C@@H](C(C)=O)CC[C@@H]32)C1` [Compound I-40, ALL-ASI-C6-2-TG-oleate]: 165 nM, 0.265 µM·h and 1.7 h.
Take `CC(=O)OCC(COC(C)=O)OC(=O)CC(C)CC(=O)OC(C)OC(=O)O[C@@H]1CC[C@@]2(C)[C@@H](CC[C@@H]3[C@@H]2CC[C@]2(C)[C@@H](C(C)=O)CC[C@@H]32)C1` (stereo partly shown) [Compound I-38, ALL-CMSI-C5bMe-2-TG-acetate]: in series [1] (po), the concentration peaked (Cmax) at 335 nM; the “Mean Plasma AUC, 0-24 h” value is 0.45 µM·h; the time of peak concentration (Tmax) was determined as 1 h.

What is called Cmax is the highest concentration seen after dosing. Broadly, the Tmax is the time at which the peak concentration occurs.
